Laboratory results taken from ChEMBL document CHEMBL1649339, “Abietane and C20-norabietane diterpenes from the stem bark of Fraxinus sieboldiana and their biological activities” (J Nat Prod, 2010).

Experiments:
[1] = tested on: A2780; test: cells; settings: Homo sapiens, A2780, 24 h
Description: Cytotoxicity against human A2780 cells after 24 hrs by MTT assay

[2] = tested on: BGC-823; test: Cytotoxicity against human BGC823 cells after 24 hrs by MTT assay; format: functional, cell-based; settings: BGC-823, 24 h
[3] = tested on: A549; test: Cytotoxicity against human A549 cells after 24 hrs by MTT assay; format: functional, cell-based; settings: A549, 24 h
[4] = tested on: HCT-8; test: Cytotoxicity against human HCT8 cells after 24 hrs by MTT assay; format: functional, cell-based; settings: HCT-8, 24 h
[5] = tested on: Bel-7402; test: Cytotoxicity against human Bel7402 cells after 24 hrs by MTT assay; format: functional, cell-based; settings: Bel-7402, 24 h
[6] = tested on: Influenza A virus; test: microbe, parasite or virus in culture; format: functional, organism-based; settings: HEK-293T
[7] = Antiinflammatory activity in PAF-induced rat Polymorphonuclear leukocyte assessed as inhibition of beta-glucuronidase release at 10^-5 M; format: functional

Row | SMILES | IC50 [1] [µM] | IC50 [2] [µM] | IC50 [3] [µM] | IC50 [4] [µM] | IC50 [5] [µM] | IC50 [6] [µM] | inhibition at 10 µM [7] [%]
1 | CC(C)C1=C[C@]23CC[C@H]4[C@]5(C)CCC[C@@]4(C2=CC1=O)[C@@H](OC5)O3 | > 10 | > 10 | > 10 | > 10 | > 10 |  | 
2 | CC[C@@]1(O)C(=O)OCc2c1cc1n(c2=O)Cc2cc3ccccc3nc2-1 [CAMPTOTHECIN] | 0.2 |  | 3.6 |  |  |  | 
3 | CC(C)c1cc2c(cc1O)[C@@]1(O)CCCC(C)(C)[C@@H]1CC2=O | > 10 | > 10 | > 10 | > 10 | > 10 |  | 
4 | CC(C)c1cc2c(cc1O)[C@]13CCC[C@](C)(CO[C@H]1O)[C@@H]3CC2 | > 10 | > 10 | > 10 | > 10 | > 10 |  | 
5 | CC(C)c1ccc2c(c1)C(=O)C[C@H]1C(C)(C)CCC[C@]21C | > 10 | > 10 | > 10 | > 10 | > 10 | 4.8 | 
6 | CC(C)c1cc2c(cc1O)[C@@]1(C=O)CCCC(C)(C)[C@@H]1CC2 |  | > 10 | > 10 | > 10 | > 10 |  | 65.9
7 | CCO[C@@H]1OC[C@@]2(C)CCC[C@@]13c1cc(O)c(C(C)C)cc1CC[C@@H]23 | > 10 | > 10 | > 10 | > 10 | > 10 |  | 
8 | CC(C)c1cc2c(cc1O)[C@@]1(O)CCC[C@](C)(CO)[C@@H]1CC2=O | > 10 | > 10 | > 10 | > 10 | > 10 |  | 
9 | CO[C@H]1OC[C@@]2(C)CCC[C@@]13c1cc(O)c(C(C)C)cc1CC[C@@H]23 | > 10 | > 10 | > 10 | > 10 | > 10 |  | 
10 | CC(C)c1cc2c(cc1O)[C@@]13CCCC(C)(C)[C@@H]1[C@H](OC3=O)[C@H]2O | > 10 | > 10 | > 10 | > 10 | > 10 |  | 
11 | CC(C)C1=C[C@]23O[C@H]2[C@H]2OC(=O)[C@@]4(CCCC(C)(C)[C@H]24)C3=CC1=O | 1.7 | > 10 | > 10 | > 10 | > 10 |  | 
12 | CC(C)c1cc2ccc3c(c2cc1O)C(=O)CCC3(C)C | > 10 | > 10 | > 10 | > 10 | > 10 |  | 
13 | CC(C)c1cc2c(cc1O)C1=CC(=O)CC(C)(C)[C@@H]1CC2 | > 10 | > 10 | > 10 | > 10 | > 10 |  | 
14 | CO[C@@H]1OC[C@@]2(C)CCC[C@@]13c1cc(O)c(C(C)C)cc1CC[C@@H]23 | > 10 | > 10 | > 10 | > 10 | > 10 |  | 
15 | CC(C)c1cc2c(cc1O)[C@]13CCC[C@](C)(COC1=O)[C@@H]3CC2 | > 10 | > 10 | > 10 | > 10 | > 10 |  | 
16 | CC(C)C1=C[C@]2(O)CC[C@H]3[C@]4(C)CCC[C@]3(C(=O)OC4)C2=CC1=O | > 10 | > 10 | > 10 | > 10 | > 10 |  | 
17 | CC(C)c1cc2c(cc1O)[C@@]13CCCC(C)(C)[C@@H]1[C@H](OC3=O)C2=O | > 10 | > 10 | > 10 | > 10 | > 10 |  | 
18 | CCO[C@@H]1OC[C@@]2(C)CCC[C@@]13c1cc(O)c(C(C)C)cc1C(=O)C[C@@H]23 | > 10 | > 10 | > 10 | > 10 | > 10 |  | 
19 | CC(C)c1cc2c(cc1O)[C@]13CCC[C@]4(C)CO[C@@H]1O[C@H]2C[C@@H]43 | > 10 | > 10 | > 10 | > 10 | > 10 |  | 59.7
20 | CC(C)c1cc2c(cc1O)[C@]13CCC[C@](C)(CO[C@@H]1O)[C@@H]3CC2 | > 10 | > 10 | > 10 | > 10 | > 10 |  | 
21 | CC(C)c1cc2c(cc1O)[C@@]13CCCC(C)(C)[C@@H]1[C@H](OC3=O)[C@@H]2O | > 10 | > 10 | 6 | > 10 | > 10 |  | 
22 | CC(C)c1cc2c(cc1O)C1=C(CC2)C(C)(C)CC[C@H]1O | > 10 | > 10 | > 10 | > 10 | > 10 |  | 
23 | CC(C)c1cc2c(cc1O)[C@H]1CCCC(C)(C)[C@@H]1CC2=O | > 10 | > 10 | > 10 | > 10 | > 10 |  | 56.1
24 | CCO[C@@H]1C[C@@H]2C(=CC(=O)CC2(C)C)c2cc(O)c(C(C)C)cc21 | > 10 | > 10 | > 10 | > 10 | > 10 |  | 
